Results from patent publication US20080008707A1, “Denatured collagen peptides and uses thereof” (Cell-Matrix, Inc., priority 2006, published 2008).
Square brackets hold non-standard residues; d marks the D form. Ends that are not written are not given here. Hyp = O=C(O)[C@@H]1C[C@@H](O)CN1

Experiments:
[1] = system: D93 binding to human denatured-collagen IV; assay: Competition ELISA: synthetic peptides blocking D93 binding to heat denatured collagen IV
Experimental: (§1) The ELISA was conducted as follows: wells of a 96-well microtiter plate (Immulon, 4 HBX flat-bottomed, Thermo Electron Corporation, Waltham, Mass.) were coated with 100 μL/well of dn-collagen IV at 10 μg/mL in Phosphate Buffered Saline (PBS) overnight at 4° C. The plate was washed 3 times (3×) with PBS containing 0.05% (v/v) Tween-20 (PBST) using an automated plate washer.
(§2) The plate was blocked by adding 300 μL/well of 1% BSA (w/v) in PBS for 1 hour at 25° C. followed by washing 3× in PBST as above.
(§3) Solutions of D93 or HUI77 were prepared with various concentrations of peptide or antibody inhibitor and incubate for 15 minutes. D93 or HUI77 was prepared at 200 ng/mL in 1% BSA/PBS.
(§4) For antibody blocking studies using synthetic peptides: peptide inhibitor stock solutions were prepared at 2 mM, 0.2 mM, 0.02 mM, and 0.002 mM in 1% BSA/PBS. 500 μL of a 2 mM peptide solution in 1% BSA/PBS was prepared and diluted 1:10 in 500 μL a total of three times to make peptide inhibitor concentrations.
(§5) 200 μL of D93 or HUI77 at 200 ng/mL solution was combined with 200 μL of peptide or antibody inhibitor solution and incubated for 15 minutes at room temperature.
(§6) D93 or HUI77 with various concentrations of inhibitors (2 mM, 0.2 mM, 0.02 mM, and 0.002 mM) were added to microplate wells and incubated for 1 hour at 25° C. The plate was washed 3× in PBST as above.
(§7) To each microtiter plate well, 100 μL of diluted anti-human IgG or anti-mouse IgM conjugated to horseradish peroxidase (HRP) in PBST was added and incubated for one hour at 25° C.: (a) for D93: Goat anti-human IgG-HRP (Jackson ImmunoResearch, Catalog No. 109-035-088) was used at 1:20,000 and (b) for HUI77: Goat anti-mouse IgM-HRP was used at 1:4,000. Plates were washed 3× in PBST as above.
(§8) Tetramethylbenzidine (TMB) substrate (100 μL; Pierce Chemicals)) was added to wells and the plates were allowed to develop at room temperature for 15 minutes in the dark. Substrate development was stopped by adding 50 μL/well of 2N H2SO4. The microtiter […] plates were read at 450 nm within five minutes of adding the H2SO4. Reactivity was measured with a microplate reader (Molecular Devices, Sunnyvale, Calif.) at a wavelength of 450 nm and analyzed using SOFTMax® PRO4.0 (Molecular Devices). All samples were tested in triplicate.
(§9) Individual peptides with amino acid substitutions and deletions were also synthesized based on the primary and secondary peptide arrays. […] The inhibitory activity of the individual peptides was tested by ELISA as previously described to measure binding of D93 or HUI77 to denatured collagen where peptides and antibodies were prepared at a 2× concentration and pre-incubated for 15 minutes prior to adding to microtiter plates coated with dn-collagen.
(§10) 96-well plates were coated with 100 μL/well of denatured (dn) collagen IV at 10 μg/mL in phosphate buffered saline (PBS) overnight at 4° C. followed by washing the plates in an automated plate washer 3 times in PBS containing 0.05% (v/v) Tween-20 (PBST). Non-specific binding was prevented by blocking the wells by adding 300 μL/well of 1% bovine serum albumin (BSA) (w/v) in PBS for 1 hour (hr) at 25° C. The plates were washed as above.
(§11) Solutions of D93 and HUI77 antibodies were prepared with various concentrations of inhibitor and incubated for 15 minutes. Briefly, 20 mLs of D93 or HUI77 were prepared at 200 ng/mL in 1% BSA/PBS. Solutions of peptide inhibitors (2 mM, 0.2 mM, […]) were prepared in 1% BSA/PBS. Equal volumes of antibodies and peptide inhibitors were combined: 200 μL of D93 or HUI77 (200 ng/mL solution) with 200 μL of each peptide solution.
(§12) 100 μL/well of D93 or HUI77 at 100 ng/mL with various concentrations of inhibitors were added to the wells in triplicate and incubated for 1 hour at 25° C. The plates were washed as described above.
(§13) 100 μL/well of secondary horseradish peroxidase (HRP)-conjugated antibody in PBST was added to each well and incubated for 1 hour (hr) at 25° C. […]

[2] = system: HUI77 binding to denatured collagen IV; assay: Competition ELISA: synthetic peptides blocking HUI77 binding to heat denatured collagen IV; set-up: species or system human
Experimental: as §1, §2, §3, §4, §5, §6, §7, §8, §9, §10, §11, §12, §13

[3] = peptide inhibitor concentration 1 μM, average of two studies, vs 1% BSA/PBS alone
[4] = peptide inhibitor concentration 10 μM, average of two studies, vs 1% BSA/PBS alone
[5] = peptide inhibitor concentration 100 μM, average of two studies, vs 1% BSA/PBS alone
[6] = peptide inhibitor concentration 1000 μM, average of two studies, vs 1% BSA/PBS alone
[7] = peptide inhibitor concentration 10 μM, average of two studies
[8] = peptide inhibitor concentration 100 μM, average of two studies
[9] = peptide inhibitor concentration 1000 μM, average of two studies
[10] = peptide inhibitor concentration 1000 μM, asterisk (*): data from a separate assay

% INHIBITION OF BINDING OF D93 TO HUMAN DENATURED-COLLAGEN IV [1, 3]	% INHIBITION OF BINDING OF D93 TO HUMAN DENATURED-COLLAGEN IV [1, 4]	% INHIBITION OF BINDING OF D93 TO HUMAN DENATURED-COLLAGEN IV [1, 5]	% INHIBITION OF BINDING OF D93 TO HUMAN DENATURED-COLLAGEN IV [1, 6]	% INHIBITION OF BINDING OF HUI77 TO DENATURED COLLAGEN IV [2, 7]	% INHIBITION OF BINDING OF HUI77 TO DENATURED COLLAGEN IV [2, 8]	% INHIBITION OF BINDING OF HUI77 TO DENATURED COLLAGEN IV [2, 9]	Substance	other results
30%	81%	93.5%	93.5%	7.5%	18%	–	Hyp-G-A-K-G-L-P-G-P-Hyp-G-P-Hyp-G-P-Y [SEQ ID NO: 2]	% INHIBITION OF BINDING OF HUI77 TO DENATURED COLLAGEN IV ([2]; peptide inhibitor concentration 1000 μM, average of two studies, 1000 µM): 86%; % INHIBITION OF BINDING OF HUI77 TO DENATURED COLLAGEN IV ([2]; peptide inhibitor concentration 1000 μM, average of two studies, listed as 12 (2), 1000 µM): 86.5%
4.5%	1%	0%	3.5%	6.5%	6.5%	6.5%	CTWPRHHTTDALL [SEQ ID NO: 39, reference compound]	% INHIBITION OF BINDING OF D93 TO HUMAN DENATURED-COLLAGEN IV [1, 10]: 4.9%; % INHIBITION OF BINDING OF HUI77 TO DENATURED COLLAGEN IV [2, 10]: 11.1%
8%	3.5%	1%	6.5%	7%	7.5%	8.5%	LPGFPGC [SEQ ID NO: 37, reference compound]	–
9.5%	21%	77%	92.5%	7.5%	12%	44%	GPPGPPGP (GPXGPXGP; MOD_RES (3) Hydroxyproline; MOD_RES (6) Hydroxyproline) [SEQ ID NO: 31]	–

The next lines start with the substance.

Substance	% INHIBITION OF BINDING OF D93 TO HUMAN DENATURED-COLLAGEN IV [1, 3]	% INHIBITION OF BINDING OF D93 TO HUMAN DENATURED-COLLAGEN IV [1, 4]	% INHIBITION OF BINDING OF D93 TO HUMAN DENATURED-COLLAGEN IV [1, 5]	% INHIBITION OF BINDING OF D93 TO HUMAN DENATURED-COLLAGEN IV [1, 6]	% INHIBITION OF BINDING OF HUI77 TO DENATURED COLLAGEN IV [2, 7]	% INHIBITION OF BINDING OF HUI77 TO DENATURED COLLAGEN IV [2, 8]	% INHIBITION OF BINDING OF HUI77 TO DENATURED COLLAGEN IV [2, 9]	other results
LPGLPG (L[Hyp]GL[Hyp]G) [SEQ ID NO: 25]	8%	6.5%	6.5%	46.5%	6%	9.5%	17.5%	–
L-Hyp-G-F-Hyp-G (L[Hyp]GF[Hyp]G) [SEQ ID NO: 23]	10.5%	6%	8%	32%	7%	14.5%	75%	–
LPGSPG (L[Hyp]GS[Hyp]G) [SEQ ID NO: 26]	9.5%	3.5%	2.5%	13.5%	8%	10.5%	8.5%	–
GPPGPPG [SEQ ID NO: 33]	–	–	–	–	–	–	–	% INHIBITION OF BINDING OF D93 TO HUMAN DENATURED-COLLAGEN IV ([1]; peptide inhibitor concentration 1 μM, average of two studies, vs 1% BSA/PBS alone, listed as 23 (33), 1 µM): 5%; % INHIBITION OF BINDING OF D93 TO HUMAN DENATURED-COLLAGEN IV ([1]; peptide inhibitor concentration 10 μM, average of two studies, vs 1% BSA/PBS alone, listed as 23 (33), 10 µM): 4.5%; % INHIBITION OF BINDING OF D93 TO HUMAN DENATURED-COLLAGEN IV ([1]; peptide inhibitor concentration 100 μM, average of two studies, vs 1% BSA/PBS alone, listed as 23 (33), 100 µM): 1.5%; % INHIBITION OF BINDING OF D93 TO HUMAN DENATURED-COLLAGEN IV ([1]; peptide inhibitor concentration 1000 μM, average of two studies, vs 1% BSA/PBS alone, listed as 23 (33), 1000 µM): 6.5%; % INHIBITION OF BINDING OF HUI77 TO DENATURED COLLAGEN IV ([2]; peptide inhibitor concentration 10 μM, average of two studies, listed as 23 (33), 10 µM): 1.5%; % INHIBITION OF BINDING OF HUI77 TO DENATURED COLLAGEN IV ([2]; peptide inhibitor concentration 100 μM, average of two studies, listed as 23 (33), 100 µM): 2%; % INHIBITION OF BINDING OF HUI77 TO DENATURED COLLAGEN IV ([2]; peptide inhibitor concentration 1000 μM, average of two studies, listed as 23 (33), 1000 µM): 1%
L-Hyp-G-P-Hyp-G (L[Hyp]GP[Hyp]G) [SEQ ID NO: 24]	6.5%	12%	52.5%	90%	3%	8%	64%	–
LPGPPGPPGPY [SEQ ID NO: 19]	–	–	–	–	–	–	–	% INHIBITION OF BINDING OF D93 TO HUMAN DENATURED-COLLAGEN IV ([1]; peptide inhibitor concentration 1 μM, average of two studies, vs 1% BSA/PBS alone, listed as 11 (19), 1 µM): 32%; % INHIBITION OF BINDING OF D93 TO HUMAN DENATURED-COLLAGEN IV ([1]; peptide inhibitor concentration 10 μM, average of two studies, vs 1% BSA/PBS alone, listed as 11 (19), 10 µM): 83%; % INHIBITION OF BINDING OF D93 TO HUMAN DENATURED-COLLAGEN IV ([1]; peptide inhibitor concentration 100 μM, average of two studies, vs 1% BSA/PBS alone, listed as 11 (19), 100 µM): 93.5%; % INHIBITION OF BINDING OF D93 TO HUMAN DENATURED-COLLAGEN IV ([1]; peptide inhibitor concentration 1000 μM, average of two studies, vs 1% BSA/PBS alone, listed as 11 (19), 1000 µM): 93.5%; % INHIBITION OF BINDING OF HUI77 TO DENATURED COLLAGEN IV ([2]; peptide inhibitor concentration 10 μM, average of two studies, listed as 11 (19), 10 µM): 6.5%; % INHIBITION OF BINDING OF HUI77 TO DENATURED COLLAGEN IV ([2]; peptide inhibitor concentration 100 μM, average of two studies, listed as 11 (19), 100 µM): 18.5%; % INHIBITION OF BINDING OF HUI77 TO DENATURED COLLAGEN IV ([2]; peptide inhibitor concentration 1000 μM, average of two studies, listed as 11 (19), 1000 µM): 87%
LPGPPGPPGP (LPGP[Hyp]GP[Hyp]GP) [SEQ ID NO: 20]	12%	41.5%	89%	92.5%	10%	14%	73%	–
LPGTPG (L[Hyp]GT[Hyp]G) [SEQ ID NO: 27]	7%	2%	4.5%	24%	3.5%	4.5%	6%	–
